Calls of active or inactive are those of the source. The calls are words filed in the database; no cut-off is given here.
Assays:
[1] = test system: CHO; test: Cytotoxicity against wild type CHO cells assessed as growth inhibition after 96 hrs by MTT assay; type: functional, cell-based; settings: Cricetulus griseus
[2] = test system: CHO; test: Cytotoxicity against CHO cells transfected with CYP1A1 assessed as growth inhibition after 96 hrs by MTT assay; type: functional, cell-based; settings: Cricetulus griseus
[3] = target: T1, Cytochrome P450 1A1 (Homo sapiens, UniProt P04798); test: Drug level in presence of CYP1A1 (unknown origin) expressed in bactosomes treated with 1-amino-3-methyl-1-oxobut-3-en-2-yl 3-methoxy-5-methyl-1-naphthoate measured for 180 mins by LC/MS/MS analysis; type: ADME; settings: recombinant enzyme, 3 h
T1 sequence (P04798 whole entry): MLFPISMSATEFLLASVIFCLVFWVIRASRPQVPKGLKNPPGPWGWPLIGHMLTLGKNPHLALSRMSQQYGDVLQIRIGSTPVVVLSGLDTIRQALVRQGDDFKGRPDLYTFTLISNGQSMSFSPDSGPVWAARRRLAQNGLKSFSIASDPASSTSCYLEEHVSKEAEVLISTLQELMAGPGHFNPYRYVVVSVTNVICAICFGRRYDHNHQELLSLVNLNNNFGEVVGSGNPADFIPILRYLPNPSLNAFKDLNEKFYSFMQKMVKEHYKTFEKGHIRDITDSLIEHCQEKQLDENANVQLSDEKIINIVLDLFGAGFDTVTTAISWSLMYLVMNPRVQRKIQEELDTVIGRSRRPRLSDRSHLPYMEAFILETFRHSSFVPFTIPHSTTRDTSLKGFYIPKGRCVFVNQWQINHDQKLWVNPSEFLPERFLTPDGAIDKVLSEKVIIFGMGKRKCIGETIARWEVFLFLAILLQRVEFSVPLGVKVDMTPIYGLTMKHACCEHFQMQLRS

[4] = target: T2, Cytochrome P450 1B1 (Homo sapiens, UniProt Q16678); test: Drug level in presence of CYP1B1 (unknown origin) expressed in bactosomes treated with 1-amino-3-methyl-1-oxobut-3-en-2-yl 3-methoxy-5-methyl-1-naphthoate measured for 180 mins by LC/MS/MS analysis; type: ADME; settings: recombinant enzyme, 3 h
T2 sequence (Q16678 whole entry): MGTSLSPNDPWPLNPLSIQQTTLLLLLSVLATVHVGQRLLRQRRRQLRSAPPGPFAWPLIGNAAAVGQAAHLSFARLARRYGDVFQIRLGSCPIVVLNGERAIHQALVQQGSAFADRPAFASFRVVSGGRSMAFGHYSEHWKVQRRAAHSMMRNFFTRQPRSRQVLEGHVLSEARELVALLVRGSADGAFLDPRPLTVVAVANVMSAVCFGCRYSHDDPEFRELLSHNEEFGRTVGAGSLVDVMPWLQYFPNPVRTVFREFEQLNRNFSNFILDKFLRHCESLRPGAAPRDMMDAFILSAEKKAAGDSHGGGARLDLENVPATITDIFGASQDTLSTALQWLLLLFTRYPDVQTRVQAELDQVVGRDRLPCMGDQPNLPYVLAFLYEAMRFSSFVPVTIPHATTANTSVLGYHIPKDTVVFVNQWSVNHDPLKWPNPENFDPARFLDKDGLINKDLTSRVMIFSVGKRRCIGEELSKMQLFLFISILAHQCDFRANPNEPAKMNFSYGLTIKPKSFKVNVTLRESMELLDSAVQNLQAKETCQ

[5] = test system: CHO; test: Potentiation factor, ratio of IC50 for wild type CHO cells in absence of CYP2D6 expressed in bactosomes to IC50 for wild type CHO cells in presence of CYP2D6 expressed in bactosomes; type: functional, Cricetulus griseus
[6] = test system: SW480; test: Cytotoxicity against human SW480 cells transfected with CYP2W1 assessed as growth inhibition at 0.001 to 100 uM after 96 hrs by MTT assay; type: functional, cell-based
[7] = test system: MKN-45; test: Cytotoxicity against human MKN45 cells expressing CYP3A4 mRNA assessed as growth inhibition after 96 hrs by MTT assay; type: functional, cell-based
[8] = test system: CHO; test: Induction of DNA damage in wild type CHO cells assessed as DNA double strand breaks by measuring increase in mean tail moment at 50 uM after 1 hr by neutral comet assay in presence of CYP3A4 expressed in bactosomes; type: functional, cell-based; settings: Cricetulus griseus
[9] = target: T2, Cytochrome P450 1B1; test: Drug metabolism assessed as CYP1B1 (unknown origin) expressed in bactosomes-mediated (1R)-2-amino-1-(2-methyloxiran-2-yl)-2-oxoethyl 3-methoxy-5-methyl-1-naphthoate/(1S)-2-amino-1-(2-methyloxiran-2-yl)-2-oxoethyl 3-methoxy-5-methyl-1-naphthoate formation measured for 180 mins by LC/MS/MS analysis; type: ADME; settings: recombinant enzyme, 3 h
[10] = test system: CHO; test: Cytotoxicity against wild type CHO cells assessed as growth inhibition preincubated with CYP1B1 expressed in bactosomes for 1 hr followed by cell addition measured after 96 hrs by MTT assay; type: functional, cell-based; settings: Cricetulus griseus
[11] = test system: MKN-45; test: Cytotoxicity against human MKN45 cells expressing CYP1A1 mRNA assessed as growth inhibition after 96 hrs by MTT assay; type: functional, cell-based
[12] = test system: CHO; test: Potentiation factor, ratio of IC50 for wild type CHO cells in absence of CYP1A1 expressed in bactosomes to IC50 for wild type CHO cells in presence of CYP1A1 expressed in bactosomes; type: functional, Cricetulus griseus
[13] = test system: CHO; test: Cytotoxicity against wild type CHO cells assessed as growth inhibition preincubated with CYP1A1 expressed in bactosomes for 1 hr followed by cell addition measured after 96 hrs by MTT assay; type: functional, cell-based; settings: Cricetulus griseus
[14] = test system: SGC-7901; test: Cytotoxicity against human SGC7901 cells expressing CYP3A4 protein assessed as growth inhibition after 96 hrs by MTT assay; type: functional, cell-based
[15] = test system: SGC-7901; test: Cytotoxicity against human SGC7901 cells expressing CYP1A1 protein assessed as growth inhibition after 96 hrs by MTT assay; type: functional, cell-based
[16] = test system: SGC-7901; test: Cytotoxicity against human SGC7901 cells expressing CYP1A1 mRNA assessed as growth inhibition after 96 hrs by MTT assay; type: functional, cell-based
[17] = test system: CHO; test: Induction of DNA damage in wild type CHO cells assessed as DNA double strand breaks by measuring increase in mean tail moment at 50 uM after 1 hr by neutral comet assay in absence of CYP3A4 expressed in bactosomes; type: functional, cell-based; settings: Cricetulus griseus
[18] = test system: CHO; test: Induction of DNA damage in wild type CHO cells assessed as DNA interstrand cross-links by measuring decrease in mean tail moment at 50 uM after 1 hr by alkaline comet assay in absence of CYP3A4 bactosomes; type: functional, cell-based; settings: Cricetulus griseus
[19] = test system: CHO; test: Potentiation factor, ratio of IC50 for wild type CHO cells in absence of CYP1B1 expressed in bactosomes to IC50 for wild type CHO cells in presence of CYP1B1 expressed in bactosomes; type: functional, Cricetulus griseus
[20] = test system: MKN-45; test: Cytotoxicity against human MKN45 cells expressing CYP3A4 protein assessed as growth inhibition after 96 hrs by MTT assay; type: functional, cell-based
[21] = target: T1, Cytochrome P450 1A1; test: Drug metabolism assessed as CYP1A1 (unknown origin) expressed in bactosomes-mediated (1R)-2-amino-1-(2-methyloxiran-2-yl)-2-oxoethyl 3-methoxy-5-methyl-1-naphthoate formation measured for 180 mins by LC/MS/MS analysis; type: ADME; settings: recombinant enzyme, 3 h
[22] = test system: CHO; test: Potentiation factor, ratio of IC50 for wild type CHO cells in absence of CYP1A2 expressed in bactosomes to IC50 for wild type CHO cells in presence of CYP1A2 expressed in bactosomes; type: functional, Cricetulus griseus
[23] = test system: CHO; test: Induction of DNA damage in wild type CHO cells assessed as DNA single strand breaks at 50 uM after 1 hr by alkaline comet assay in absence of CYP3A4 expressed in bactosomes; type: functional, cell-based; settings: Cricetulus griseus
[24] = test system: CHO; test: Induction of DNA damage in wild type CHO cells assessed as DNA interstrand cross-links by measuring decrease in mean tail moment at 50 uM after 1 hr by alkaline comet assay in presence of CYP3A4 expressed in bactosomes; type: functional, cell-based; settings: Cricetulus griseus
[25] = test system: CHO; test: Cytotoxicity against wild type CHO cells assessed as growth inhibition preincubated with CYP2D6 expressed in bactosomes for 1 hr followed by cell addition measured after 96 hrs by MTT assay; type: functional, cell-based; settings: Cricetulus griseus
[26] = test system: SGC-7901; test: Cytotoxicity against human SGC7901 cells expressing CYP3A4 mRNA assessed as growth inhibition after 96 hrs by MTT assay; type: functional, cell-based
[27] = test system: MKN-45; test: Cytotoxicity against human MKN45 cells expressing CYP1A1 protein assessed as growth inhibition after 96 hrs by MTT assay; type: functional, cell-based
[28] = test system: CHO; test: Induction of DNA damage in wild type CHO cells assessed as DNA single strand breaks at 50 uM after 1 hr by alkaline comet assay in presence of CYP3A4 expressed in bactosomes; type: functional, cell-based; settings: Cricetulus griseus
[29] = test system: CHO; test: Potentiation factor, ratio of IC50 for wild type CHO cells in absence of CYP3A4 expressed in bactosomes to IC50 for wild type CHO cells in presence of CYP3A4 expressed in bactosomes; type: functional, Cricetulus griseus
[30] = target: T3, Cytochrome P450 3A4 (Homo sapiens, UniProt P08684); test: Drug metabolism assessed as CYP3A4 (unknown origin) expressed in bactosomes-mediated (1S)-2-amino-1-(2-methyloxiran-2-yl)-2-oxoethyl 3-methoxy-5-methyl-1-naphthoate formation measured for 180 mins by LC/MS/MS analysis; type: ADME; settings: recombinant enzyme, 3 h
T3 sequence (P08684 whole entry): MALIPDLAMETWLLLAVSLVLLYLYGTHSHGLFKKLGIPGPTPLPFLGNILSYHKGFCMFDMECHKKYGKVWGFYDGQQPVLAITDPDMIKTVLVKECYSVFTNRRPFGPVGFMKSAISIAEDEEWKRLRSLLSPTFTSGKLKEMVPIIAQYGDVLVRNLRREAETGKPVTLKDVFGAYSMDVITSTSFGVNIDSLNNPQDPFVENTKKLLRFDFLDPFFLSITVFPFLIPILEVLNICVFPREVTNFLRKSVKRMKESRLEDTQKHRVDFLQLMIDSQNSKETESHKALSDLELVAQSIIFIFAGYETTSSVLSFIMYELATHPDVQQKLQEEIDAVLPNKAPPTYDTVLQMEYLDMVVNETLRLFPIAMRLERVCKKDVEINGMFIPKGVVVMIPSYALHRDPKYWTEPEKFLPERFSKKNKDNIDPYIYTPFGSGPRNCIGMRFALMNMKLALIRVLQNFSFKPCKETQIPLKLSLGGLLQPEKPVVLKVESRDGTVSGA

[31] = test system: CHO; test: Cytotoxicity against wild type CHO cells assessed as growth inhibition preincubated with CYP3A4 expressed in bactosomes for 1 hr followed by cell addition measured after 96 hrs by MTT assay; type: functional, cell-based; settings: Cricetulus griseus
[32] = test system: CHO; test: Cytotoxicity against wild type CHO cells assessed as growth inhibition preincubated with CYP1A2 expressed in bactosomes for 1 hr followed by cell addition measured after 96 hrs by MTT assay; type: functional, cell-based; settings: Cricetulus griseus
[33] = target: T3, Cytochrome P450 3A4; test: Drug level in presence of CYP3A4 (unknown origin) expressed in bactosomes treated with 1-amino-3-methyl-1-oxobut-3-en-2-yl 3-methoxy-5-methyl-1-naphthoate measured for 180 mins by LC/MS/MS analysis; type: ADME; settings: recombinant enzyme, 3 h

`CC1([C@H](OC(=O)c2cccc3ccccc23)C(N)=O)CO1` (some centres not stated) was tested, and the IC50 [1] was 10 µM and the IC50 [2] was 5 µM.
With `COc1cc(C(=O)O[C@@H](C(N)=O)C2(C)CO2)c2cccc(C)c2c1` (some centres not stated) the Drug metabolism [3] was “metabolite_detected”, the IC50 [1] was 5.7 µM and the Drug metabolism [4] was “metabolite_detected”. It also gave an IC50 [2] of 6 µM.
For `COc1ccc2c(OC)ccc(C(=O)O[C@@H](C(N)=O)C3(C)CO3)c2c1` (some centres not stated), the IC50 [1] was 3 µM and the IC50 [2] was 9 µM.
`CC1([C@H](OC(=O)c2ccc(F)c3ccccc23)C(N)=O)CO1` (some centres not stated) was tested, and the IC50 [1] was 7 µM and the IC50 [2] was 3 µM.
`C=C(C)[C@@H](OC(=O)c1cc(OC)cc2c(C)cccc12)C(N)=O` was tested, and the “Ratio IC50” value [5] was 2.9, the “growth inhibition (GI)” value [6] was “inactive” and the IC50 [1] was 81.6 µM. The “growth inhibition (GI)” value [7] was “Dose-dependent effect”, the Activity [8] was “inactive” and the Drug metabolism [9] was “metabolite_detected”. The IC50 [10] was 11.8 µM, the “growth inhibition (GI)” value [11] was “Dose-dependent effect” and the “Ratio IC50” value [12] was 5.8. For the same compound, the IC50 [13] was 14.2 µM, the “growth inhibition (GI)” value [14] was “Dose-dependent effect” and the “growth inhibition (GI)” value [15] was “Dose-dependent effect”. The “growth inhibition (GI)” value [16] was “Dose-dependent effect”, the Activity [17] was “inactive” and the Activity [18] was “inactive”. For the same compound, the “Ratio IC50” value [19] was 7, the IC50 [2] was 6.3 µM and the “growth inhibition (GI)” value [20] was “Dose-dependent effect”. The Drug metabolism [21] was “metabolite_detected”, the “Ratio IC50” value [22] was 4 and the Activity [23] was “inactive”. The Activity [24] was “Active”, the IC50 [25] was 28.3 µM and the “growth inhibition (GI)” value [26] was “Dose-dependent effect”. For the same compound, the “growth inhibition (GI)” value [27] was “Dose-dependent effect”, the Activity [28] was “Active” and the “Ratio IC50” value [29] was 24.4. The Drug metabolism [30] was “metabolite_detected”, the IC50 [31] was 3.34 µM and the IC50 [32] was 20.3 µM.
`CC1([C@@H](OC(=O)c2cccc3ccccc23)C(N)=O)CO1` (some centres not stated) showed an IC50 [1] of 10 µM and an IC50 [2] of 9 µM.
In the case of `Cc1ccc(C(=O)O[C@@H](C(N)=O)C2(C)CO2)c2ccccc12` (some centres not stated), the IC50 [1] is reported as 5 µM and the IC50 [2] is reported as 9 µM.
Compound `COc1ccc2c(OC)ccc(C(=O)O[C@H](C(N)=O)C3(C)CO3)c2c1` (some centres not stated) has an IC50 [1] of 6 µM and an IC50 [2] of 3 µM.
`C=C(C)[C@@H](OC(=O)c1ccc(F)c2ccccc12)C(N)=O` showed an IC50 [1] of over 100 µM and an IC50 [2] of over 100 µM.
Compound `C=C(C)[C@@H](OC(=O)c1ccc(C)c2ccccc12)C(N)=O` has an IC50 [1] of over 100 µM and an IC50 [2] of over 100 µM.
For `C=C(C)[C@@H](OC(=O)c1ccc(OC)c2ccc(OC)cc12)C(N)=O`, the IC50 [1] was over 100 µM and the IC50 [2] was over 100 µM.
For `COc1cc(C(=O)O[C@H](C(N)=O)C2(C)CO2)c2cccc(C)c2c1` (some centres not stated), the IC50 [1] was 2.8 µM, the Drug metabolism [33] was “metabolite_detected” and the Drug metabolism [4] was “metabolite_detected”. For the same compound, the IC50 [2] was 3.2 µM.
`CC1([C@@H](OC(=O)c2ccc(F)c3ccccc23)C(N)=O)CO1` (some centres not stated) gave an IC50 [1] of 7 µM and an IC50 [2] of 2 µM.
`Cc1ccc(C(=O)O[C@H](C(N)=O)C2(C)CO2)c2ccccc12` (some centres not stated) showed an IC50 [1] of 6 µM and an IC50 [2] of 3 µM.
`C=C(C)[C@@H](OC(=O)c1cccc2ccccc12)C(N)=O` was tested, and the IC50 [1] was over 100 µM and the IC50 [2] was over 100 µM.

From ChEMBL document CHEMBL3621198, “Probing cytochrome P450-mediated activation with a truncated azinomycin analogue” (Medchemcomm, 2015)
